{"source": "ChEMBL document CHEMBL3108684", "about": "“Discovery and development of potent and selective inhibitors of histone methyltransferase g9a” (ACS Med Chem Lett, 2014)", "key": {"[1]": {"molecular_target": "T1, Histone-lysine N-methyltransferase EHMT2 (Homo sapiens, UniProt Q96KQ7)", "T1 sequence (Q96KQ7 whole entry)": "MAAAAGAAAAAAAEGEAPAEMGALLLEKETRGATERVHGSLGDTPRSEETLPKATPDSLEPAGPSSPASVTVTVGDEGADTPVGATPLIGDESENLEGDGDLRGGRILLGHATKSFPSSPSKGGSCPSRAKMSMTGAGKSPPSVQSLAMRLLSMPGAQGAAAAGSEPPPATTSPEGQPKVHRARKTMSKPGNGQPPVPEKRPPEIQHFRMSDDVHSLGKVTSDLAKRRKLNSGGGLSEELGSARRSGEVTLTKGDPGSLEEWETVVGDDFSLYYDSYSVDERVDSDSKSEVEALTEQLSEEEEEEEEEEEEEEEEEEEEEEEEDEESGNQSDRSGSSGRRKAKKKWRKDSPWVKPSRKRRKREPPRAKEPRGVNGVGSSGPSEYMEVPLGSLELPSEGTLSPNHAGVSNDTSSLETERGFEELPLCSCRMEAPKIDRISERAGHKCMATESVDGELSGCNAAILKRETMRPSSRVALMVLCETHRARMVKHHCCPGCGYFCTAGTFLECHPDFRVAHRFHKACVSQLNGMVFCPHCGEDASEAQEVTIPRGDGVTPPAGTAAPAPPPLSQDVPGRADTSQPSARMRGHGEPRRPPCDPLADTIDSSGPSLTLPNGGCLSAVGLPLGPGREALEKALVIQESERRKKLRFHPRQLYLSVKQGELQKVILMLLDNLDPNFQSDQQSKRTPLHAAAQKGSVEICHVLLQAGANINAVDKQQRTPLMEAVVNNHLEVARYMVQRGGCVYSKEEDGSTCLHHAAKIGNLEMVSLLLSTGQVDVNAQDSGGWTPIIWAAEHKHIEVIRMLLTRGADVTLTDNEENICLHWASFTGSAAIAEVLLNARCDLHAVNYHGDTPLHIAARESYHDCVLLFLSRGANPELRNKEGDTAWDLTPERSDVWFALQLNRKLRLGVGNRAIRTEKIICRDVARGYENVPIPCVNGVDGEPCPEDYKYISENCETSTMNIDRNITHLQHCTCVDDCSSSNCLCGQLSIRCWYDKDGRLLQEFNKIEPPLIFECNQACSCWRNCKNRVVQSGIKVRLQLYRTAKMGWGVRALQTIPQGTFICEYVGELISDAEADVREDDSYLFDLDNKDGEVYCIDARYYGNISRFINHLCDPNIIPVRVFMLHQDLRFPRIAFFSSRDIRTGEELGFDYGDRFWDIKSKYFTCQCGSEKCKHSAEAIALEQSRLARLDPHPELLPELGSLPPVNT", "assay": "Inhibition of G9a (unknown origin) using biotinylated-histone H3(1-21) peptide as substrate after 3 hrs by AlphaLISA assay"}, "PC-3 [2]": {"system": "PC-3", "assay": "Effect on total H3K36Me2 protein level in human PC3 cells at 0.01 to 10 uM after 72 hrs by Western blotting analysis", "type": "functional, cell-based"}, "PC-3 [3]": {"system": "PC-3", "assay": "Effect on total H3K27Me3 protein level in human PC3 cells at 0.01 to 10 uM after 72 hrs by Western blotting analysis", "type": "functional, cell-based"}, "PC-3 [4]": {"system": "PC-3", "assay": "Effect on total histone 3 protein level in human PC3 cells at 0.01 to 10 uM after 72 hrs by Western blotting analysis", "type": "functional, cell-based"}, "[5]": {"molecular_target": "Histone-lysine N-methyltransferase EHMT1 (Homo sapiens, UniProt Q9H9B1)", "assay": "Inhibition of GLP (unknown origin)-mediated incorporation of methyl group from [3H]-SAM into peptide substrate by scintillation proximity assay"}, "[6]": {"molecular_target": "Histone-lysine N-methyltransferase NSD2 (Homo sapiens) (UniProt O96028)", "assay": "Inhibition of WHSC1 (unknown origin)-mediated incorporation of methyl group from [3H]-SAM into peptide substrate up to 50 uM after 1 hr by scintillation proximity assay"}, "[7]": {"molecular_target": "Histone-lysine N-methyltransferase NSD3 (Homo sapiens) (UniProt Q9BZ95)", "assay": "Inhibition of WHSC1L (unknown origin)-mediated incorporation of methyl group from [3H]-SAM into peptide substrate up to 50 uM after 1 hr by scintillation proximity assay"}, "[8]": {"molecular_target": "Histone-lysine N-methyltransferase, H3 lysine-79 specific (Homo sapiens) (UniProt Q8TEK3)", "assay": "Inhibition of DOT1L (unknown origin)-mediated incorporation of methyl group from [3H]-SAM into peptide substrate up to 50 uM after 1 hr by scintillation proximity assay"}, "[9]": {"molecular_target": "Histone-lysine N-methyltransferase SETD2 (Homo sapiens) (UniProt Q9BYW2)", "assay": "Inhibition of SETD2 (unknown origin)-mediated incorporation of methyl group from [3H]-SAM into peptide substrate up to 50 uM by scintillation proximity assay"}, "[10]": {"molecular_target": "N-lysine methyltransferase SMYD2 (Homo sapiens) (UniProt Q9NRG4)", "assay": "Inhibition of SMYD2 (unknown origin)-mediated incorporation of methyl group from [3H]-SAM into peptide substrate up to 50 uM by scintillation proximity assay"}, "[11]": {"molecular_target": "Histone-lysine N-methyltransferase KMT5C (Homo sapiens) (UniProt Q86Y97)", "sequence (Q86Y97 whole entry, looked up)": "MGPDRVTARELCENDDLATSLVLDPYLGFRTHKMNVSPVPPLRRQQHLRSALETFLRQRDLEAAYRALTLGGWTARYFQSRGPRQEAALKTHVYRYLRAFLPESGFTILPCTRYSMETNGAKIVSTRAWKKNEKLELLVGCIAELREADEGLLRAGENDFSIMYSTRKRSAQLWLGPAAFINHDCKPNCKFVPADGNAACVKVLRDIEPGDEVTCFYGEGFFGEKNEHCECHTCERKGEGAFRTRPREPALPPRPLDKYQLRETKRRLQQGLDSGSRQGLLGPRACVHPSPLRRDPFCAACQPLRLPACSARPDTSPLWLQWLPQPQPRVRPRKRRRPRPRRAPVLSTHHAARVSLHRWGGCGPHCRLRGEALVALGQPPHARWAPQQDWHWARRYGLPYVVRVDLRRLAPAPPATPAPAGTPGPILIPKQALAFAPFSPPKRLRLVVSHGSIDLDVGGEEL", "assay": "Inhibition of SUV420H2 (unknown origin)-mediated incorporation of methyl group from [3H]-SAM into peptide substrate up to 50 uM by scintillation proximity assay"}, "[12]": {"molecular_target": "Histone-lysine N-methyltransferase KMT5B (Homo sapiens) (UniProt Q4FZB7)", "assay": "Inhibition of SUV420H1 (unknown origin)-mediated incorporation of methyl group from [3H]-SAM into peptide substrate up to 50 uM by scintillation proximity assay"}, "[13]": {"molecular_target": "DNA (cytosine-5)-methyltransferase 1 (Homo sapiens) (UniProt P26358)", "assay": "Inhibition of DNMT1 (unknown origin)-mediated incorporation of methyl group from [3H]-SAM into dsDNA substrate up to 50 uM by scintillation proximity assay"}, "[14]": {"molecular_target": "Histone-lysine N-methyltransferase SMYD3 (Homo sapiens) (UniProt Q9H7B4)", "assay": "Inhibition of SMYD3 (unknown origin)-mediated incorporation of methyl group from [3H]-SAM into peptide substrate up to 50 uM by scintillation proximity assay"}, "[15]": {"molecular_target": "EZH2/SUZ12/EED complex (Homo sapiens) (UniProt Q15910+O75530+Q15022)", "sequence (O75530 2-441 partner limits assumed)": "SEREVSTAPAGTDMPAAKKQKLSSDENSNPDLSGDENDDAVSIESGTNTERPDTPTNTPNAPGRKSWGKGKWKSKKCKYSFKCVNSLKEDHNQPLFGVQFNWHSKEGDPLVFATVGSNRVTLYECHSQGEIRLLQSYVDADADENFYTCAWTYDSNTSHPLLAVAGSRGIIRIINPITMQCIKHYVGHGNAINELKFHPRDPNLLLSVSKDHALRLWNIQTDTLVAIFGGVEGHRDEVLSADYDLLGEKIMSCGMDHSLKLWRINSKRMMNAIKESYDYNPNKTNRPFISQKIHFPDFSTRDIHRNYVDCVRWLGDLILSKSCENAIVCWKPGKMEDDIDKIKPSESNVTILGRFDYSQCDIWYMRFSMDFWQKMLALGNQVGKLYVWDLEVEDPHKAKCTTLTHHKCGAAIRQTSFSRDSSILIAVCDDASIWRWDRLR", "sequence (Q15022 whole entry partner)": "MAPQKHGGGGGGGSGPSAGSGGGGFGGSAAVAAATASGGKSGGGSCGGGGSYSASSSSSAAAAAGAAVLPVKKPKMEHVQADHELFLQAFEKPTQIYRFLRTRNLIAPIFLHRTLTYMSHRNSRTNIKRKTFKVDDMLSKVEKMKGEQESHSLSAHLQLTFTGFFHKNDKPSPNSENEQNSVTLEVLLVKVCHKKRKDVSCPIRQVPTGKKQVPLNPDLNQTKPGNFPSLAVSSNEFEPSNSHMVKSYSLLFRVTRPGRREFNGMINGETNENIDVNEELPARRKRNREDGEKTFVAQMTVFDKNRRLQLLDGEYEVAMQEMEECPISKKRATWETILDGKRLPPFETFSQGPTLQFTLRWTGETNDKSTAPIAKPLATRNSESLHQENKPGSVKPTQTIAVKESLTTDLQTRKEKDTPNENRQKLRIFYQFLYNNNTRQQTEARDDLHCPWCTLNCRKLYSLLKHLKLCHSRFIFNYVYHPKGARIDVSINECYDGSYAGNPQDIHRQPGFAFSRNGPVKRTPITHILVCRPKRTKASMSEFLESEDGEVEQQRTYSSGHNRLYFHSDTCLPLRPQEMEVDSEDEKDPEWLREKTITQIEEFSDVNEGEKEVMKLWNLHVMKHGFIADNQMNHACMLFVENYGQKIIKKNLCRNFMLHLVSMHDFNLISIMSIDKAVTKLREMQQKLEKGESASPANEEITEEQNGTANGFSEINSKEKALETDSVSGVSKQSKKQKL", "sequence (Q15910 whole entry)": "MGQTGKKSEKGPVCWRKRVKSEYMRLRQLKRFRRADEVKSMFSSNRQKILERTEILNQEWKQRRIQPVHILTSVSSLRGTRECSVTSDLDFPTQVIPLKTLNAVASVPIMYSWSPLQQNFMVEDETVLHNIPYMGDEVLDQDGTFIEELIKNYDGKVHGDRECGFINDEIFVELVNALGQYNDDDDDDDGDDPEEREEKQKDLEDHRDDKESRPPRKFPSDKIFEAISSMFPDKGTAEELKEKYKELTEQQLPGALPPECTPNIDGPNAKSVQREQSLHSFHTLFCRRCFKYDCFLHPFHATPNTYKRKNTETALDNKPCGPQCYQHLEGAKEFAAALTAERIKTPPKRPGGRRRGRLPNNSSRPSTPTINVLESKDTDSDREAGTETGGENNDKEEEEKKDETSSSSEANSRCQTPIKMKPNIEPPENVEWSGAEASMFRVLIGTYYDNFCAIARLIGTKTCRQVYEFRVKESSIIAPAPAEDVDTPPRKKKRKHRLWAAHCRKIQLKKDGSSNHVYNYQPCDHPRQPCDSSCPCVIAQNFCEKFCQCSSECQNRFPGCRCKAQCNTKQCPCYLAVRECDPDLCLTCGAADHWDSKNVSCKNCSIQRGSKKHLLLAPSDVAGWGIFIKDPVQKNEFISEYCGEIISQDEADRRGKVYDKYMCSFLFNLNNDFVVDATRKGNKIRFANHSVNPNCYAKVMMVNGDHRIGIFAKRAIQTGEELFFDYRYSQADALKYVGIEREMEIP", "assay": "Inhibition of EZH2/SUZ12/EED complex (unknown origin)-mediated incorporation of methyl group from [3H]-SAM into peptide substrate up to 50 uM by scintillation proximity assay", "type": "protein-complex assay"}, "[16]": {"molecular_target": "EZH1/SUZ12/EED/AEBP2/RBBP4 complex (Homo sapiens) (UniProt Q92800+O75530+Q15022+Q6ZN18+Q09028)", "sequence (O75530 2-441 partner limits assumed)": "as the sequence (O75530 2-441 partner limits assumed) above", "sequence (Q09028 2-425 partner limits assumed)": "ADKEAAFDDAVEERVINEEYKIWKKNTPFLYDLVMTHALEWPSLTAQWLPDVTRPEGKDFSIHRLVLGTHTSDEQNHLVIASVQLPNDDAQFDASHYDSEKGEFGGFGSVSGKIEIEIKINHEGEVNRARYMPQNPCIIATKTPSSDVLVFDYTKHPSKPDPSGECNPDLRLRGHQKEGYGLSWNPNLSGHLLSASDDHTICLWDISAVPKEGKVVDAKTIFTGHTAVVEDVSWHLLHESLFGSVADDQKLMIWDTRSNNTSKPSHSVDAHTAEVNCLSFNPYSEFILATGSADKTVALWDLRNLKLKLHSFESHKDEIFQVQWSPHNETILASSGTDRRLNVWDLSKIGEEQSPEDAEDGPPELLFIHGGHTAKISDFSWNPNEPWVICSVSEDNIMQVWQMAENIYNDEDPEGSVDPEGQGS", "sequence (Q15022 whole entry partner)": "as the sequence (Q15022 whole entry partner) above", "sequence (Q6ZN18 2-517 partner limits assumed)": "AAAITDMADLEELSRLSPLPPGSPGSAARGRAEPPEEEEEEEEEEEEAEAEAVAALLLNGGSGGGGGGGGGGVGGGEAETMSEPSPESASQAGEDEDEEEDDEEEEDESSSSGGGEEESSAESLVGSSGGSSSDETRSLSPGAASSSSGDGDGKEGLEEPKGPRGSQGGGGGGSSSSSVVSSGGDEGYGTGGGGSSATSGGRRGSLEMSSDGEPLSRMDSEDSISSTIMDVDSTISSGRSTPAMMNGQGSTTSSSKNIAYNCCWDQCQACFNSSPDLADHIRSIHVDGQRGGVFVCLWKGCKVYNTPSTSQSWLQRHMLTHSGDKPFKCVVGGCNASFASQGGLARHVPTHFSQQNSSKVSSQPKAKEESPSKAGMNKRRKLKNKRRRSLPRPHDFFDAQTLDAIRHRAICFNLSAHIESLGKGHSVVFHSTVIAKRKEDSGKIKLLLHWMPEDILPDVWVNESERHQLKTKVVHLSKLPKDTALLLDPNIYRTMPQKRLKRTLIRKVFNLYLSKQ", "sequence (Q92800 whole entry)": "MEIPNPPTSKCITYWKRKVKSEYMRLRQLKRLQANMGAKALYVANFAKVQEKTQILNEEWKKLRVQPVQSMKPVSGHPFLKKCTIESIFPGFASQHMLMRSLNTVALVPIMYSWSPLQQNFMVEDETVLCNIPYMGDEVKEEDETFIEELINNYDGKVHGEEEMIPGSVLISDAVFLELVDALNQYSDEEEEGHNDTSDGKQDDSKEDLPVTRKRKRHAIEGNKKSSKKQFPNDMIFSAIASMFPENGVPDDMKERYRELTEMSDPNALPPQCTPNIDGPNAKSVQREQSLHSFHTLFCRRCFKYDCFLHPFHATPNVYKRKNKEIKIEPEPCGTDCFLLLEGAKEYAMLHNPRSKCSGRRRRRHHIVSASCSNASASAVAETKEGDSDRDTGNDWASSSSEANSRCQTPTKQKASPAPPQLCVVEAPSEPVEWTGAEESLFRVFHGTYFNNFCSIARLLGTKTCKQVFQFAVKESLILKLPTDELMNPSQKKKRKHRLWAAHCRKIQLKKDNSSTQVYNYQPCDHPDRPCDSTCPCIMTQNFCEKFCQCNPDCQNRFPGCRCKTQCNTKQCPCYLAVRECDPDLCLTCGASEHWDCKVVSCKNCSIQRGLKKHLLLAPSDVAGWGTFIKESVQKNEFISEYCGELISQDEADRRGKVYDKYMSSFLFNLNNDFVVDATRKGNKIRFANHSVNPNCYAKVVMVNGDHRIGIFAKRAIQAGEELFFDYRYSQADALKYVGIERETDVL", "assay": "Inhibition of EZH1/EED/SUZ12/AEBP2/RBBP4 complex (unknown origin)-mediated incorporation of methyl group from [3H]-SAM into peptide substrate up to 50 uM by scintillation proximity assay", "type": "protein-complex assay"}, "[17]": {"molecular_target": "N-lysine methyltransferase KMT5A (Homo sapiens) (UniProt Q9NQR1)", "assay": "Inhibition of SETD8 (unknown origin)-mediated incorporation of methyl group from [3H]-SAM into peptide substrate up to 50 uM by scintillation proximity assay"}, "[18]": {"molecular_target": "Protein arginine N-methyltransferase 8 (Homo sapiens) (UniProt Q9NR22)", "assay": "Inhibition of PRMT8 (unknown origin)-mediated incorporation of methyl group from [3H]-SAM into peptide substrate up to 50 uM by scintillation proximity assay"}, "[19]": {"molecular_target": "Protein arginine N-methyltransferase 6 (Homo sapiens) (UniProt Q96LA8)", "assay": "Inhibition of PRMT6 (unknown origin)-mediated incorporation of methyl group from [3H]-SAM into peptide substrate up to 50 uM by scintillation proximity assay"}, "[20]": {"molecular_target": "PRMT5/MEP50 complex (Homo sapiens) (UniProt O14744+Q9BQA1)", "assay": "Inhibition of PRMT5/MEP50 complex (unknown origin)-mediated incorporation of methyl group from [3H]-SAM into peptide substrate up to 50 uM by scintillation proximity assay", "type": "protein-complex assay"}, "[21]": {"molecular_target": "Protein arginine N-methyltransferase 3 (Homo sapiens) (UniProt O60678)", "assay": "Inhibition of PRMT3 (unknown origin)-mediated incorporation of methyl group from [3H]-SAM into peptide substrate up to 50 uM by scintillation proximity assay"}, "[22]": {"molecular_target": "Protein arginine N-methyltransferase 1 (Homo sapiens) (UniProt Q99873)", "assay": "Inhibition of PRMT1 (unknown origin)-mediated incorporation of methyl group from [3H]-SAM into peptide substrate up to 50 uM by scintillation proximity assay"}, "[23]": {"molecular_target": "Histone-lysine N-methyltransferase SETD7 (Homo sapiens) (UniProt Q8WTS6)", "sequence (Q8WTS6 whole entry)": "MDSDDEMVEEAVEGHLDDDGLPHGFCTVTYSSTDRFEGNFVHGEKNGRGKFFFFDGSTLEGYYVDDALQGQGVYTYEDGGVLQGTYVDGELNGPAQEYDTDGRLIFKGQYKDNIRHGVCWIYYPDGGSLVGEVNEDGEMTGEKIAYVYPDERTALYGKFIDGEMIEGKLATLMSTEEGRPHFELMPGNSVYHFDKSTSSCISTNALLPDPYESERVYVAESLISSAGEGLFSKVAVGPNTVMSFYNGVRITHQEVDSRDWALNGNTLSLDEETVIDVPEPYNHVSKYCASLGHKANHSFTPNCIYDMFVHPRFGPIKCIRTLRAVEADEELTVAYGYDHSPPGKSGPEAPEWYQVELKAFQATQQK", "assay": "Inhibition of SETD7 (unknown origin)-mediated incorporation of methyl group from [3H]-SAM into peptide substrate up to 50 uM by scintillation proximity assay"}, "[24]": {"molecular_target": "MLL1/ASH2L/RBBP5/WDR5 complex (Homo sapiens) (UniProt P61964+Q03164+Q9UBL3+Q15291)", "assay": "Inhibition of MLL1/ASH2L/RBBP5/WDR5 complex (unknown origin)-mediated incorporation of methyl group from [3H]-SAM into peptide substrate up to 50 uM by scintillation proximity assay", "type": "protein-complex assay"}, "[25]": {"molecular_target": "Histone-lysine N-methyltransferase SETDB1 (Homo sapiens) (UniProt Q15047)", "assay": "Inhibition of SETDB1 (unknown origin)-mediated incorporation of methyl group from [3H]-SAM into peptide substrate up to 50 uM by scintillation proximity assay"}, "[26]": {"molecular_target": "Histone-lysine N-methyltransferase SUV39H2 (Homo sapiens) (UniProt Q9H5I1)", "sequence (Q9H5I1 whole entry)": "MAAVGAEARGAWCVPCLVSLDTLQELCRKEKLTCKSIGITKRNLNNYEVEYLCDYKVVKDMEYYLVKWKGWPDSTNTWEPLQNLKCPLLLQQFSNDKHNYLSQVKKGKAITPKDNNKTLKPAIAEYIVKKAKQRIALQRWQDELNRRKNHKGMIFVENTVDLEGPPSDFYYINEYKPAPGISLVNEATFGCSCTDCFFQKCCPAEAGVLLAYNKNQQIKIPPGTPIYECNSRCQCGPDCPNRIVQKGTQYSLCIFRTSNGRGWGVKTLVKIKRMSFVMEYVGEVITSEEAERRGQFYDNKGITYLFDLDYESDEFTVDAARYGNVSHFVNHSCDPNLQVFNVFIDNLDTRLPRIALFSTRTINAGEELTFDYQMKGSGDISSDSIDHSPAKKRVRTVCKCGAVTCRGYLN", "assay": "Inhibition of SUV39H2 (unknown origin)-mediated incorporation of methyl group from [3H]-SAM into peptide substrate up to 50 uM by scintillation proximity assay"}, "[27]": {"molecular_target": "Histone-lysine N-methyltransferase EHMT2 (Homo sapiens) (UniProt Q96KQ7)", "conditions": "PC-3, 3 uM", "description": "Inhibition of G9a in human PC3 cells assessed as reduction in H3K9Me2 level at 3 uM after 72 hrs by Western blotting analysis relative to control"}}, "note": "Active and inactive are the calls of the source. The calls are words filed in the database; no cut-off is given here."}
{"smiles": "COc1cc2cc(N)[nH]c2cc1OC", "values": [{"measurement": "IC50", "setting": "[1]", "result": 14400, "unit": "nM"}]}
{"smiles": "COc1cc2c(cc1OCCCN1CCCC1)N=C(N)C21CCC1", "values": [{"measurement": "Activity", "setting": "PC-3 [2]", "result": "inactive"}, {"measurement": "Activity", "setting": "PC-3 [3]", "result": "inactive"}, {"measurement": "Activity", "setting": "PC-3 [4]", "result": "inactive"}, {"measurement": "IC50", "setting": "[5]", "result": 38, "unit": "nM"}, {"measurement": "inhibition", "setting": "[6]", "result": "inactive"}, {"measurement": "inhibition", "setting": "[7]", "result": "inactive"}, {"measurement": "inhibition", "setting": "[8]", "result": "inactive"}, {"measurement": "inhibition", "setting": "[9]", "result": "inactive"}, {"measurement": "inhibition", "setting": "[10]", "result": "inactive"}, {"measurement": "inhibition", "setting": "[11]", "result": "inactive"}, {"measurement": "inhibition", "setting": "[12]", "result": "inactive"}, {"measurement": "inhibition", "setting": "[13]", "result": "inactive"}, {"measurement": "inhibition", "setting": "[14]", "result": "inactive"}, {"measurement": "inhibition", "setting": "[15]", "result": "inactive"}, {"measurement": "inhibition", "setting": "[16]", "result": "inactive"}, {"measurement": "inhibition", "setting": "[17]", "result": "inactive"}, {"measurement": "inhibition", "setting": "[18]", "result": "inactive"}, {"measurement": "inhibition", "setting": "[19]", "result": "inactive"}, {"measurement": "inhibition", "setting": "[20]", "result": "inactive"}, {"measurement": "inhibition", "setting": "[21]", "result": "inactive"}, {"measurement": "inhibition", "setting": "[22]", "result": "inactive"}, {"measurement": "inhibition", "setting": "[23]", "result": "inactive"}, {"measurement": "inhibition", "setting": "[24]", "result": "inactive"}, {"measurement": "inhibition", "setting": "[25]", "result": "inactive"}, {"measurement": "inhibition", "setting": "[26]", "result": "inactive"}, {"measurement": "inhibition", "setting": "[27]", "result": 50, "unit": "%"}]}
{"smiles": "COc1cc2c(NC3CCN(C(C)C)CC3)nc(C3CCCCC3)nc2cc1OCCCN1CCCC1", "values": [{"measurement": "Activity", "setting": "PC-3 [2]", "result": "inactive"}, {"measurement": "Activity", "setting": "PC-3 [3]", "result": "inactive"}, {"measurement": "Activity", "setting": "PC-3 [4]", "result": "inactive"}, {"measurement": "inhibition", "setting": "[27]", "result": 50, "unit": "%"}]}
{"smiles": "COc1cc2c(cc1OCCCN1CC[C@@H](F)C1)N=C(N)C21CCC1", "values": [{"measurement": "IC50", "setting": "[1]", "result": 3.7, "unit": "nM"}]}
{"smiles": "COc1cc2c(cc1OCCCN1CC[C@H](F)C1)N=C(N)C21CCC1", "values": [{"measurement": "IC50", "setting": "[1]", "result": 18, "unit": "nM"}]}
